Key:
rat small intestine = assay: Sustained Spike Potential (SSP) myoelectric bioassay, infusion into the duodenum via cannula in instrumented uninfected rats; type: in vivo; settings: for SSP/Hr (MEAN ± SE): 0.2 ml infused into duodenum; for SSP frequency compared with saline controls / background (in words): 0.2 ml infused into intestinal lumen, FIG. 3; for stimulation / induction of SSP above background levels (in words): infused into intestinal lumen, concentration not stated at the place
Excerpt: Outbred male rats (Sprague Dawley, Harlan Sprague Dawley, Inc., Indianapolis, Ind.) were housed singly and maintained on a 12-hour light/12-hour dark cycle. All rats used in the bioassay procedure were uninfected with tapeworms. The design and surgical implantation procedure of the intestinal extracellular bipolar electrodes have been described previously (Dwinell et al., 1994, 1997). Briefly, four bipolar electrodes were surgically sutured to the intestinal serosa of each rat according to the methods of Dwinell et at. (1994), which is incorporated herein by reference. Three electrodes (J1-J3) were implanted on the jejunum at 10 cm intervals, with the first electrode (J1) placed 10 cm caudal from the ligament of Treitz and proceeding caudally with J2 and J3. A fourth electrode (designated “I” because it was placed within the ileum) was placed 20 cm orad from the ileo-caecal junction. In addition, a cannula was implanted with one end residing in the lumen of the mid-duodenum, whereas the other end was exteriorized to allow infusion of test fractions.
All compounds tested were infused into the duodenum via the cannula. Compounds were delivered in 0.2 ml aliquots followed immediately by a 0.2 ml saline cannula rinse. These volumes were used in order to prevent muscle contraction due to stretch from larger bolus volumes. To observe the induction of SSP, intestinal myoelectric activity was recorded for 90 minutes following infusion.
Consistent with the protocol of Dwinell et al. (1994), intestinal myoelectric activity was not recorded for the first five days after implantation surgery. Control recordings were taken after this period to assure the return of normal myoelectric patterns of the MMC following the cessation of post-surgical ileus. Periodic “control” recordings were made with saline on the intervening days between the tests with tapeworm-conditioned medium (TCM) or its fractions.
In vivo intestinal myoelectric activity was recorded with a polygraph chart recorder (Grass Instruments, Quincy, Mass.). The myoelectric signal from each electrode was simultaneously recorded on paper and by a personal computer with an I/O board and WINDAQ software (Dataq Instruments, Akron, Ohio) connected to the polygraph recorder by an analog-to-digital converter (Dataq Instruments).
Food was removed on each recording day at 0800 hour to prevent animal feeding and the subsequent disruption of the interdigestive myoelectric pattern. Recording occurred between 1300 and 1900 hours. All recording sessions for each animal were at least 1.5 hour in duration, and all animals were recorded while awake and unrestrained. Vehicle (0.9% saline or in some cases RPMI 1640) was used as control for test substances.
Five days after electrode and cannula implantation surgery, three consecutive baseline 90-minute recordings were made on separate days in each rat to confirm the presence of normal intestinal myoelectric activity at the end of the immediate post surgical period.
Secreted compounds were infused via the duodenal cannula and the frequency of the sustained spike potential (SSP) electrical patterns was determined from recordings of myoelectric activity. […] The third and final phase of the MMC (marked by arrowheads) is a period of >90% spiking and represents a series of contractions migrating orad to caudad along the small intestine. The caudad migration of phase III between electrode sites propels lumenal content toward the caecum.
Cyclic nucleotides were degraded to their 5′-monophosphate derivatives by incubation with bovine brain phosphodiesterase (PDE; cat. # P-0134, Sigma Co., St. Louis, Mo.).

[1] = system: Male Ross x Ross broiler chicks; assay: Effect of cGMP on feed conversion ratio in broiler chicks; type: in vivo; settings: Experiment 1
Experimental: cGMP for use in this Example was manufactured by ICN Biomedicals (Irvine, Calif.), and purchased from Fisher Scientific (Hampton, N.H.). Male Ross x Ross broiler chicks were obtained from Sunnyside Hatchery (Beaver Dam, Wis.). Standard commercial chick mash was used as a base ration. cGMP with and without succinate was dissolved in water and sprayed as a mist onto the basal diet during continuous mixing. […] Diets were prepared 1 to 3 days prior to the start of the experiment and stored in individual plastic buckets (1 bucket/replicate). Chicks were randomly placed into treatment groups with 5 birds per replicate. Chicks were weighed as a group, so each pen of 5 animals represents n=1. Treatments and replicates were randomly assigned (via a random number generator) to pens. Chicks were fed ad libitum and checked daily. Feed intake and pen weight were recorded weekly. Feed conversion ratios were calculated as grams of feed consumed/grams of weight gain in the animals. […] The results are shown in Table 2 for two sets of experiments. Experiment 1 was to run for 3 weeks, but was accidentally disrupted during the third week.

[2] = per pen of 5 chicks, 10 mg cGMP/kg of feed and/or 100 mg succinate/kg of feed, terminated after week 2

`Nc1nc2c(nc(Br)n2[C@@H]2O[C@@H]3COP(=O)(O)O[C@H]3[C@H]2O)c(=O)[nH]1` [8-Br-cGMP, reference compound] was tested, and the “SSP/Hr (MEAN ± SE)” value (rat small intestine; 10 mM) was 0.50 ± 0.31 SSP/Hr and the “SSP frequency compared with saline controls / background (in words)” value (rat small intestine; 10 mM) was “did not significantly increase”.

With `Nc1nc2nc[nH]c2c(=O)[nH]1` [Guanine suspension, guanine, reference compound] the “SSP/Hr (MEAN ± SE)” value (rat small intestine; 10 mM) was 0 SSP/Hr.

For `O=C(O)CCC(=O)O` [Succinate, succinic acid], the “Feed Conversion Ration FCR” value ([1]; grams of feed consumed/grams of weight gain) was 1.561 ± 0.073, the “Feed Intake” value [1, 2] was 2127 ± 257 and the Gain [1, 2] was 1372 ± 194. For the same molecule, the “SSP frequency / SSP induction compared with saline controls (in words)” value (rat small intestine; 100 mM infused into intestinal lumen) was “failure”, the “SSP/Hr (MEAN ± SE)” value (rat small intestine; 100 mM) was 0.33 ± 0.27 SSP/Hr and the “stimulation / induction of SSP above background levels (in words)” value (from here on “stimulation / induction”) (rat small intestine) was “does not alter motility”. For the same molecule, the “stimulation / induction” value (rat small intestine; listed as succinate) was “lack of SSP induction”.

`Nc1nc2c(ncn2[C@@H]2O[C@H](COP(=O)(O)O)[C@@H](O)[C@H]2O)c(=O)[nH]1` [Guanosine Monophosphate, reference compound] was tested, and the “SSP/Hr (MEAN ± SE)” value (rat small intestine; 10 mM) was 0.5 ± 0.3 SSP/Hr.

For `O=c1[nH]cnc2c1ncn2[C@@H]1O[C@@H]2COP(=O)(O)O[C@H]2[C@H]1O` [cIMP, reference compound], the “stimulation / induction” value (rat small intestine) was “no response”.

With `Nc1nc2c(ncn2[C@@H]2O[C@H](CO)[C@@H](O)[C@H]2O)c(=O)[nH]1` [Guanosine, guanosine, reference compound] the “SSP/Hr (MEAN ± SE)” value (rat small intestine; 10 mM) was 0.50 ± 0.28 SSP/Hr and the “SSP frequency compared with saline controls / background (in words)” value (rat small intestine; 10 mM) was “not significantly different from saline controls”.

In the case of `Nc1nc2nc[nH]c2c(=O)[nH]1` [Guanine, guanine, reference compound], the “SSP/Hr (MEAN ± SE)” value (rat small intestine; 0.1 mM) was 1.33 SSP/Hr, the “SSP/Hr (MEAN ± SE)” value (rat small intestine; 1 mM) was 1.33 ± 0.94 SSP/Hr and the “SSP/Hr (MEAN ± SE)” value (rat small intestine; 10 mM) was 0.33 ± 0.24 SSP/Hr. For the same molecule, the “SSP frequency compared with saline controls / background (in words)” value (rat small intestine; 10 mM) was “not significantly different from saline controls”.

In the case of `N[C@@H](C(=O)O)[C@@H](O)[C@H](O)[C@H](O)CO` [D-Glucosaminic Acid, D-glucosaminic acid, reference compound], the “SSP/Hr (MEAN ± SE)” value (rat small intestine; 0.25 mM) was 0 SSP/Hr and the “stimulation / induction” value (rat small intestine) was “lack of SSP induction”.

`CC(O)C(=O)O` (stereo not shown) [Lactic Acid, reference compound] was tested, and the “SSP/Hr (MEAN ± SE)” value (rat small intestine; 20 mM) was 0 SSP/Hr and the “stimulation / induction” value (rat small intestine) was “lack of SSP induction”.

For `CC(=O)O` [Acetate, reference compound], the “SSP/Hr (MEAN ± SE)” value (rat small intestine; 50 mM) was 0 SSP/Hr and the “stimulation / induction” value (rat small intestine) was “lack of SSP induction”.

In the case of `O=c1ccn([C@@H]2O[C@@H]3COP(=O)(O)O[C@H]3[C@H]2O)c(=O)[nH]1` [cUMP, reference compound], the “stimulation / induction” value (rat small intestine) was “no response”.

Source: patent US20040192638A1, “Method and composition for prolonging the residence time of drugs in the gut” (priority 2001, published 2004)
